The results in this text go back to patent publication US20220315897A1, “METHOD FOR IN VITRO PRODUCTION OF HYALINE CARTILAGE TISSUE” (VANARIX SA, priority 2019, published 2022).

Holding throughout (assay type): cell-based, human
Test [1] has as its system chondrocytes. In words: Safranin-O staining of GAG in beads from chondrocytes cultured in medium E + WNT inhibitor (2-step method). Particulars: medium E + 10 μM inhibitor. Here is the method: (§1) XAV939 was obtained by Sigma and used at the concentration of 10 μM for 4 days in 2D culture in medium E.
Safranin-O staining of cartilage spheres and native cartilage formalin-fixed paraffin-embedded samples was performed, in order to reveal glycosaminoglycans (GAG) on 5 μm paraffin slices. Slides were deparaffinated by Xylol and rehydrated by consecutive alcohol bath (concentration 100%, 95% and 70%) with a final 5-minutes distilled water bath. Then, hematoxylin staining was used for nucleus counterstaining, followed by a 5-minutes wash with running hot water. Fast Green (Sigma F7252) was used to stain the cytoplasm, then washed out with acetic acid. The slides were washed out immediately with distilled water. Safranin-O 0.1% in water bath (Sigma S2255) was applied for staining of GAGs for two and a half minutes, then washed repeatedly with distilled water. Dehydration was achieved by vigorously shaking the rack 10-20 times in alcohol baths (concentration 95% and 100%), followed by a Xylol bath until slides assembly with Eukitt resin (Batch A1113, KiNDO1500).
(§2) In order to validate the role of WNT pathway downregulation during the redifferentiation phase (medium R) (FIG. 1A), the inventors replaced medium R by medium E supplemented with 10 μM of XAV-939, a WNT pathway inhibitor for 4 days (FIG. 7G).

Test [2] has as its system chondrocytes. The test can be described thus: qPCR of ACAN and COL2A1 mRNA in chondrocytes and beads (2-step method) with WNT inhibitor. Particulars: 10 μM in medium E; 2-step method after 2D and 3D culture. How it is done:
as §1
Isolation of total RNA was performed by using the RNeasy kit from Qiagen according to the manufacturer's instructions and was measured using a spectrometer. 500 ng of total RNA was used to synthesize cDNA using the PrimeScript RT Reagent Kit (Takara) according to manufacturer's protocol.
Real-time PCR was performed with PowerUp SYBR Green Master Mix (Applied Biosystems) using the QuantStudio 12K Flex Real-Time PCR System (Thermo Fisher Scientific) at the Genomic platform core facilities (University of Geneva). First, efficacy tests were performed for all primers for validation prior utilization. The relative level of each sample was normalized, at least, to […] (ALAS1). RT-PCR reactions were carried out, at least, in technical and biological triplicates, and the average cycle threshold (CT) values were determined.
as §2
Background: Real-time PCR tracks product formation cycle by cycle.

Test [3] concerns WNT signaling. In words: Immunoblotting of chondrocytes treated with WNT signaling inhibitor. Conditions: 10 μM, 4 days, 2D culture in medium E. How it is done: as §1
Cells were lysed 30 min on ice in ice-cold RIPA buffer (Life Technologies), supplemented with phosphatase and protease inhibitors (Complete anti-protease cocktail; Roche). Protein (10 μg) was separated by SDS-PAGE (BioRad) and transferred to PVDF membranes (Amersham) Blots were probed with anti-phospho-β-catenin (Cell Signaling; 5651T), TCF-4 (Cell Signaling; 2569), Axin1 (Cell Signaling; 2087), β-actin HRP (Sigma-Aldrich) and GADPH (Cell Signaling; 2118) (1:1000) followed by the HRP-Rabbit or Mouse conjugated antibodies (1:5000).
as §2
A general note: Immunoblotting shows a protein as a band on a membrane.

Regarding `Oc1nc(-c2ccc(C(F)(F)F)cc2)nc2c1CSCC2` [XAV-939], the “GAG Safranin-O staining of beads” value in test [1] was “presence of hyaline features”. In test [2], the ACAN expression entry was “increase” and the COL2A1 expression entry is listed as “increase”. In test [3], the “axin (immunoblot)” value is on record as “increase” and the “phospho-β-catenin (immunoblot)” value is given as “increase”.
